Measurements: PMC4454677, “Prolyl Oligopeptidase from the Blood Fluke Schistosoma mansoni: From Functional Analysis to Anti-schistosomal Inhibitors” (PLoS Neglected Tropical Diseases, 2015)
“Also recorded” adds a separate entry of the source. Counter-ions that a name gives are not always drawn. Like-named read-outs stand apart in the source and are kept apart here. Numbered stars: 1 amine (or outer) side, 2 acyl side, 3 side chain; on linkers, the order of the positions; unused ones are H or OH. Square brackets hold non-standard residues; d marks the D form. Peptide text beside a SMILES is read from it. * marks the point of attachment. Sta = CC(C)C[C@H](N)[C@@H](O)CC(=O)O; Isovaleryl = CC(C)CC(=O)*; Cbz = O=C(OCc1ccccc1)*; CO = O=C([*:1])[*:2]; CH2Cl = ClC*

Assays:
human POP (HsPOP) = molecular target: T1, human POP (HsPOP) (Homo sapiens, UniProt P48147); test: biochemical
T1 sequence (P48147 1-710): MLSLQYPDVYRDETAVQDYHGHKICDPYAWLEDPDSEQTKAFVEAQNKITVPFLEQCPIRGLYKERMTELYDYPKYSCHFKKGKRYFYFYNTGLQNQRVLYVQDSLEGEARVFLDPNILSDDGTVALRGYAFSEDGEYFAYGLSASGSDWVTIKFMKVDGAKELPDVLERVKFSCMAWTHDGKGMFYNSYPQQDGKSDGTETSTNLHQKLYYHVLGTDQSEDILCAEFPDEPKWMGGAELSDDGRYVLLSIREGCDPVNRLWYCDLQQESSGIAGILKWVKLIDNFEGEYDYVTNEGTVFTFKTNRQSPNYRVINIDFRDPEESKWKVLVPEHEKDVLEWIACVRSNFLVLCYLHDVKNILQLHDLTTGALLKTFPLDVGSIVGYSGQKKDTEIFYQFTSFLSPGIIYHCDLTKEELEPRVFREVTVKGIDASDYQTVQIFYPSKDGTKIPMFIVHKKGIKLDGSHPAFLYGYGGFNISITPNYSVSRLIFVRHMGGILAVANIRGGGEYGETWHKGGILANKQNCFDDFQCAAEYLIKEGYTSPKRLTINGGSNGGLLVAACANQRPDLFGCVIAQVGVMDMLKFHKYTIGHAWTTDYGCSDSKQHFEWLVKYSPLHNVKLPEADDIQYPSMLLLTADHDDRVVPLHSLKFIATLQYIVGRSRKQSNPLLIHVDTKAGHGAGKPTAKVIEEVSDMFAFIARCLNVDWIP

recombinant SmPOP = recombinant SmPOP (Schistosoma mansoni, UniProt A0A5K4EZK1); test: biochemical; type: biochemical
[1] = system: SmPOP activity of live NTS and adult schistosomes; test: Fluorescence SmPOP activity assay with cultured schistosomes; type: cell-based, Schistosoma mansoni; settings: 1 μM inhibitor; NTS or adult worms in culture
Method: Adult worms (3 pairs) or approximately 150 NTS were incubated at 37°C and 5% CO2 for 2 days in 200 μL of Basch Medium 169 containing 5% FBS, 100 units/mL of penicillin and 100 μg/mL using black clear bottomed 96-well microplates (Costar). After incubation, half of the medium (100 μl) was transferred to an empty well leaving the parasites in the remaining half. Then SmPOP activity was measured in both wells upon the addition of 20 μL of Z-Gly-Pro-AMC (prepared as a 250 μM stock in Basch Medium 169) and in the presence or absence of 1 μM of the POP inhibitor, Z-Ala-Pro-CMK. Controls contained medium alone.

[2] = system: adult schistosomes (cleavage of angiotensin I and bradykinin); test: Hydrolysis of peptide hormones by cultured schistosomes (MALDI-TOF); type: cell-based, Schistosoma mansoni; settings: live adults in culture; 16 h; mass spectrometry
Method: Five adult schistosome pairs were placed into clear, 24-well, flat-bottom plates (Costar) containing 500 μL Basch Medium […] [28], supplemented with 2.5% FBS, 100 units/mL penicillin and 100 μg/mL streptomycin. Human angiotensin I or bradykinin in 5 μL water was added to a final concentration of 100 μM and the incubation continued for 16 h at 37°C under a 5% CO2 atmosphere. In control experiments, the peptides were cultivated in the same system in the absence of schistosomes. After incubation, the samples were ZipTiped and the resulting fragments were analyzed using MALDI-TOF performed on an UltrafleXtreme (Bruker Daltonik) operated in reflectron mode with an acceleration voltage of 25 kV and a pulsed ion extraction of 120 ns. Desorption and ionization were achieved using a Smartbeam II laser. α-Cyano-4-hydroxycinnamic acid was used as a matrix. The data were acquired from m/z 220 to 3700 and analyzed with the FlexAnalysis 3.3 software (Bruker Daltonik). The mass spectra were externally calibrated using a Peptide Calibration Standard I (Bruker Daltonik) and averaged from 3000 laser shots.

[3] = system: newly transformed schistosomula (NTS); test: Parasite assay and phenotype scoring with NTS in culture; type: cell-based, Schistosoma mansoni; settings: inhibitors at 10 μM and 1 μM, up to 4 days, grade I most severe
Method: NTS (200–300 parasites) were incubated in 200 μL of Basch Medium 169 and supplements, as described above. Inhibitors were added at final concentrations of 1 or 10 μM (0.5% DMSO final) and the incubations continued for 4 days. Grading of phenotypic responses arising as a function of time and concentration was modified after Jilkova et al.: Grade I, dead NTS by 2 days of culture at 10 μM and dying/dead NTS by 3 days at 1 μM. Grade II, dead NTS by 3 days at 10 μM and round/dark/dying by 3 days at 1 μM; Grade III, round/dark by 3 days at 1 and 10 μM concentrations (S1 Fig). ‘Dead’ was adjudicated as the loss of normal shape and the lack of movement often accompanied by obvious internal disruptions. ‘Dying’ was similar to death except that movement was detectable. Otherwise, the terms ‘round/dark’ were used to indicate less severe but obvious changes in the parasites relative to DMSO controls.

## C[C@H](NC(=O)OCc1ccccc1)C(=O)N1CCC[C@H]1C(=O)CCl [Z-Ala-Pro-CMK, Z-Ala-Pro-chloromethyl ketone] (Cbz-Ala-Pro-CH2Cl)
Human POP (HsPOP); read-out: IC50 (μM) HsPOP
  IC50: 0.0168 ± 0.0046 µM
Recombinant SmPOP
  Inhibition of rSmPOP activity (in words): completely inhibited
  inhibition at 1 µM: 100 ± 3%
Recombinant SmPOP; read-out: IC50 (μM) SmPOP
  IC50: 0.0032 ± 0.0004 µM
[1]
  Cleavage of Z-Gly-Pro-AMC by live NTS or adult schistosomes in the presence of inhibitor: abolished
[2]
  Fragmentation of angiotensin I and bradykinin by adult parasites in the presence of inhibitor: abolished

## O=S(=O)(F)Cc1ccccc1 [PMSF, phenylmethylsulfonyl fluoride]
Recombinant SmPOP
  Inhibition of rSmPOP activity (in words): Partial inhibition
Recombinant SmPOP; 1000 µM
  Inhibition (%): 47.6±1.6%

## N=C(N)NCCC[C@H](NC(=O)OCc1ccccc1)C(=O)N1CCC[C@H]1C=O [Z-Arg-Pro-CHO] (Cbz-Arg-Pro-aldehyde)
Human POP (HsPOP); read-out: IC50 (μM) HsPOP
  IC50: 2.4 ± 0.2 µM
Recombinant SmPOP; read-out: IC50 (μM) SmPOP
  IC50: 1.3 ± 0.3 µM

## O=C[C@@H]1CCCN1C(=O)[C@@H]1CCCN1C(=O)OCc1ccccc1 [Z-Pro-Pro-CHO, benzyloxycarbonyl-L-prolyl-L-prolinal] (Cbz-Pro-Pro-aldehyde)
Recombinant SmPOP
  Inhibition of rSmPOP activity (in words): completely inhibited
Recombinant SmPOP; read-out: IC50 (μM) SmPOP
  IC50: 0.16 ± 0.03 µM
Recombinant SmPOP; read-out: Inhibition (%)
  inhibition at 1 µM: 100 ± 1%
[3]
  Severity of phenotype against parasite, Grade: no effect

## O=C(O)CN(CCN(CC(=O)O)CC(=O)O)CC(=O)O [EDTA]
Recombinant SmPOP; 1000 µM
  Inhibition (%): 3.8±2.3%

## CC(C)c1ccc(C(=O)c2cccs2)c(SCCCCCCCCN(C)C)n1 [Y-29794 oxalate, 2-[[8-(Dimethylamino)octyl]thio]-6-(1-methylethyl)-3-pyridinyl-2-thienylmethanone oxalate]
Human POP (HsPOP); HsPOP, Z-Gly-Pro-AMC, pH 8.0, mean ± S.D., n=3, read-out: IC50 (μM) HsPOP
  IC50: 0.49 ± 0.03 µM
Recombinant SmPOP; read-out: IC50 (μM) SmPOP
  IC50: 8.6 ± 0.4 µM

## O=C(O)[C@@H]1CCCN1C(=O)OCc1ccccc1 [Z-Pro-OH]
Recombinant SmPOP; 100 µM
  Inhibition (%): 41.1±1.8%

## CC(C)[C@H](NC(=O)[C@H](CCCNC(=N)N)NC(=O)N[C@@H](Cc1ccccc1)C(=O)O)C(=O)N[C@H](C=O)CCCNC(=N)N [Antipain] ({Phe-CO}-Arg-Val-Arg-aldehyde)
Recombinant SmPOP
  inhibition at 20 µM: 32.4 ± 1.4%

## CC(C)C[C@H](NC(=O)[C@H]1O[C@@H]1C(=O)O)C(=O)NCCCCN=C(N)N (relative stereo) [E64, trans-Epoxysuccinyl-L-leucylamido(4-guanidino)butane]
Recombinant SmPOP; 10 µM
  Inhibition (%): 6.5±6.1%

## O=C([C@@H]1C[C@@H](O)CN1C(=O)CCCOc1ccccc1/C=C/c1ccccc1)N1CCSC1 [SUAM 14746]
Human POP (HsPOP); read-out: IC50 human POP
  IC50: 0.083 µM
Recombinant SmPOP; read-out: IC50 SmPOP
  IC50: 0.092 µM
[3]
  Severity of phenotype against parasite, Grade: no effect

## O=C[C@@H]1CCCN1C(=O)[C@H](Cc1ccc(O)cc1)NC(=O)OCc1ccccc1 [Z-Tyr-Pro-CHO] (Cbz-Tyr-Pro-aldehyde)
Human POP (HsPOP); read-out: IC50 (μM) HsPOP
  IC50: 11.4 ± 0.7 µM
Recombinant SmPOP; read-out: IC50 (μM) SmPOP
  IC50: 4.4 ± 0.4 µM

## Cl.NCCc1ccc(S(=O)(=O)F)cc1 [Pefabloc SC]
Recombinant SmPOP
  Inhibition of rSmPOP activity (in words): Partial inhibition; also recorded: only weakly
Recombinant SmPOP; 1000 µM
  Inhibition (%): 12.0±3.1%

## CC(C)C[C@H](NC(=O)[C@@H](O)[C@H](N)Cc1ccccc1)C(=O)O [Bestatin]
Recombinant SmPOP; read-out: Inhibition (%)
  inhibition at 1 µM: 2.3 ± 2.1%

## Cc1ccc(S(=O)(=O)N[C@@H](Cc2ccccc2)C(=O)CCl)cc1 [TPCK, N-p-Tosyl-L-phenylalanine chloromethyl ketone]
Recombinant SmPOP
  Inhibition of rSmPOP activity (in words): Partial inhibition
Recombinant SmPOP; 1 µM
  Inhibition (%): 67.2±6.2%

## N=C(N)NCCC[C@H](NC(=O)OCc1ccccc1)C(=O)N1CCC[C@H]1C(=O)CCl [Z-Arg-Pro-CMK] (Cbz-Arg-Pro-CH2Cl)
Human POP (HsPOP); read-out: IC50 (μM) HsPOP
  IC50: 0.0048 ± 0.0006 µM
Recombinant SmPOP; read-out: IC50 (μM) SmPOP
  IC50: 0.0029 ± 0.0001 µM

## C[C@H](NC(=O)OCc1ccccc1)C(=O)N1CCC[C@H]1C=O [Z-Ala-Pro-CHO] (Cbz-Ala-Pro-aldehyde)
Human POP (HsPOP); read-out: IC50 (μM) HsPOP
  IC50: 6.1 ± 0.3 µM
Recombinant SmPOP; read-out: IC50 (μM) SmPOP
  IC50: 3.1 ± 0.2 µM

## CC(C)CC(=O)N[C@H](C(=O)N[C@H](C(=O)N[C@@H](CC(C)C)[C@@H](O)CC(=O)N[C@@H](C)C(=O)N[C@@H](CC(C)C)[C@@H](O)CC(=O)O)C(C)C)C(C)C [Pepstatin A] (Isovaleryl-VV[Sta]A[Sta]-OH)
Recombinant SmPOP
  inhibition at 1 µM: 7.3 ± 3.5%

## N=C(N)c1ccccc1 [Benzamidine]
Recombinant SmPOP
  Inhibition of rSmPOP activity (in words): only weakly
  inhibition at 10 µM: 3.7 ± 1.1%

## CC(=O)N[C@@H](CC(C)C)C(=O)N[C@@H](CC(C)C)C(=O)N[C@H](C=O)CCCNC(=N)N [Leupeptin]
Recombinant SmPOP
  inhibition at 20 µM: 2.3 ± 1.2%

## O=c1oc(Cl)c(Cl)c2ccccc12 [3,4-dichloroisocoumarin]
Recombinant SmPOP
  Inhibition of rSmPOP activity (in words): Partial inhibition
  inhibition at 100 µM: 77.3 ± 0.6%

## O=C(O)[C@@H]1CCCN1C(=O)[C@@H]1CCCN1C(=O)OCc1ccccc1 [Z-Pro-Pro-OH] (Cbz-Pro-Pro-OH)
Recombinant SmPOP; 100 µM
  Inhibition (%): 37.6±2.1%

## NCCCC[C@H](NC(=O)OCc1ccccc1)C(=O)N1CCC[C@H]1C=O [Z-Lys-Pro-CHO] (Cbz-Lys-Pro-aldehyde)
Human POP (HsPOP); read-out: IC50 (μM) HsPOP
  IC50: 7.2 ± 0.6 µM
Recombinant SmPOP; read-out: IC50 (μM) SmPOP
  IC50: 3 ± 0.6 µM
[3]
  Severity of phenotype against parasite, Grade: I

## Cc1ccc(S(=O)(=O)N[C@@H](CCCCN)C(=O)CCl)cc1 [TLCK, Nα-Tosyl-L-lysine chloromethyl ketone]
Recombinant SmPOP
  Inhibition of rSmPOP activity (in words): Partial inhibition
Recombinant SmPOP; 1 µM
  Inhibition (%): 38.3±1.2%

## O=C[C@@H]1CCCN1C(=O)CNC(=O)OCc1ccccc1 [Z-Gly-Pro-CHO] (Cbz-Gly-Pro-aldehyde)
Recombinant SmPOP; read-out: IC50 (μM) SmPOP
  IC50: 6.1 ± 0.4 µM

B1: STI: soybean trypsin inhibitor, protein inhibitor of serine peptidases (protein, UniProt P01070 25-205, looked up)
Trypsin inhibitor A: DFVLDNEGNPLENGGTYYILSDITAFGGIRAAPTGNERCPLTVVQSRNELDKGIGTIISSPYRIRFIAEGHPLSLKFDSFAVIMLCVGIPTEWSVVEDLPEGPAVKIGENKDAMDGWFRLERVSDDEFNNYKLVFCPQQAEDDKCGDIGISIDHDDGTRRLVVSKNKPLVVQFQKLDKESL
Recombinant SmPOP
  Inhibition of rSmPOP activity (in words): neither affected
Recombinant SmPOP; 10 µM
  Inhibition (%): 12.3±3.2%
